What was measured:
HT29 cell line [1] = assay: Annexin V-PI apoptosis assay; type: cell-based; conditions: TRE 10 μM, ENC 10 nM, BIN 10 nM, 72 hours, TRE vs DMSO
Experimental: (§1) Thereafter, the cells were collected, washed with PBS, and stained with Annexin V and PI using Annexin V-FITC Apoptosis Detection Kit (Nakalai Tesque). Apoptotic cells were detected using CytoFLEX LX. A proportion of cells positive for Annexin V was calculated as a proportion of apoptotic cells. The above was performed three times as an independent experiment. Student's test was used for a significant difference test.

RKO cell line = assay: Annexin V-PI apoptosis assay; type: cell-based; conditions: TRE 10 μM, ENC 100 nM, BIN 100 nM, 72 hours, TRE vs DMSO
Experimental: as §1

[2] = tested on: WiDR (BRAF V600E-mutated colorectal cancer cell line); assay: MTT assay, encorafenib + binimetinib with retinoid; type: cell-based; conditions: ATRA 0, 1.0 or 10 μM; encorafenib and binimetinib 0 to 10 μM
Experimental: (§2) RKO cells were seeded on a 96-well plate with the number of cells of 1.5×10^3 cells/well, CO115 cells were seeded on a 96-well plate with the number of cells of 2.5×10^3 cells/well, and HT29 cells and WiDR cells were respectively seeded on 96-well plates with the number of cells of 6×10^3 cells/well. After incubation for about 24 hours until the cell density reached 40% to 60%, the drug was administered. After incubation at 37° C. for 72 hours, the MTT assay was performed using Cell Counting Kit-8 (Dojindo Laboratories, Kumamoto, Japan). To each well was added 10 μl of Cell Counting Kit-8 solution, the plates were placed in a culture vessel at 5% CO2 and 37° C. for 120 minutes to perform a color reaction, and then the absorbance at 450 nm was measured and evaluated with a microplate reader SpectraMax M2e (Molecular Devices, Sunnyvale, CA, USA). Cells administered with 0.1% DMSO were used as a control. The above was performed three or more times as independent experiments.
(§3) In various kinds of colorectal cancer cell lines, the inhibition effect of a BRAF inhibitor (encorafenib) and an MEK inhibitor (binimetinib) for the viability of cells and the enhancement by ATRA were examined. […] The horizontal axis indicates component concentrations of encorafenib and binimetinib in a range of 0 μM to 10 μM, and the vertical axis indicates the cell viability when 0 μM, 1.0 μM, or 10 μM (each bar graph) of ATRA was administered. As shown in the drawing, encorafenib and binimetinib were used in an equal molar concentration.
(§4) As the compounds for acting on a retinoid receptor, retinol, tamibarotene, and bexarotene among the retinoids were used. As the cell lines, the colorectal cancer cell lines including RKO, HT29, CO115, WiDR, COLO205, and LIM2405 described above were used. As the BRAF inhibitor and the MEK inhibitor to be used in combination, a component (EB) obtained by mixing encorafenib and binimetinib in equal amounts was used as in Test Example 2.

[3] = tested on: 8505C (BRAF V600E-mutated thyroid cancer cell line); assay: MTT assay, encorafenib + binimetinib with ATRA; type: cell-based; conditions: ATRA 0, 1.0 or 10 μM; encorafenib and binimetinib 0 to 10 μM
[4] = tested on: HT29 (BRAF V600E-mutated colorectal cancer cell line); assay: MTT assay, encorafenib + binimetinib with retinoid; type: cell-based; conditions: ATRA 0, 1.0 or 10 μM; encorafenib and binimetinib 0 to 10 μM
Experimental: as §2, §3
(§5) As the compounds for acting and on a retinoid receptor, retinol, tamibarotene, bexarotene among the retinoids were used. As the cell lines, the above-described cell lines including RKO, HT29, and CO115 were used. As the BRAF inhibitor and the MEK inhibitor to be used in combination, a component (EB) obtained by mixing encorafenib and binimetinib in equal amounts was used as in Test Example 2.
as §4

[5] = tested on: RKO (BRAF V600E-mutated colorectal cancer cell line); assay: MTT assay, encorafenib + binimetinib with retinoid; type: cell-based; conditions: ATRA 0, 1.0 or 10 μM; encorafenib and binimetinib 0 to 10 μM
Experimental: as §2, §3, §5, §4

[6] = tested on: CO115 (BRAF V600E-mutated colorectal cancer cell line); assay: MTT assay, encorafenib + binimetinib with retinoid; type: cell-based; conditions: ATRA 0, 1.0 or 10 μM; encorafenib and binimetinib 0 to 10 μM
Experimental: as §2, §3, §5, §4

HT29 cell line [7] = assay: Subcutaneous transplanted tumor mouse model (Test Example 13); type: in vivo
Experimental: The in vivo antitumor effect and toxicity generated by combined use of a compound acting on a retinoid receptor, a BRAF inhibitor, an MEK inhibitor, and an anti-EGFR antibody, or a BRAF inhibitor and an anti-EGFR antibody were evaluated by a mouse model subcutaneous transplanted with a HT29 cell line.
Female nude mice (BALB/c-nu) were purchased from The Jackson Laboratory Japan, and raised in a specific pathogen-free environment. The cultured HT29 cell line was collected with trypsin, and a culture medium and a Corning Matrigel basement membrane matrix (Corning) were mixed at a volume ratio of 1:1 so as to reach 1×10^7 cells/mL, followed by suspension. Into a left abdominal region of each mouse was subcutaneously implanted 0.1 mL of cell suspension. When tumor volumes reached 150 mm^3 to 200 mm^3, mice were randomly divided into a vehicle group, a TRE single group, an ENC+CET group, a three-drug combination (TRE+ENC+CET) group including TRE and ENC+CET, an ENC+BIN+CET group, or a four-drug combination (TRE+ENC+BIN+CET) group including TRE and ENC+BIN+CET. TRE, ENC, and BIN were dissolved in Corn oil (FUJIFILM Wako Pure Chemical Industries, Ltd.), and further subjected to ultrasonic treatment using Bioruptor UCW-310 (Sonicbio. Co. Ltd.) to prepare a drug solution. ENC, BIN, and TRE were orally administrated by force once a day for 28 days at doses of 5 mg/kg, 1.75 mg/kg, and 10 mg/kg, respectively. […] The tumor size and the body weight were measured every three days from the start of the therapy. […]
Subsequently, in order to evaluate the influence of the combined use of TRE and ENC+BIN+CET or ENC+CET on in vivo tumor proliferation, a Ki-67 labeling index was calculated using a resected tumor at the end of the therapy.
Specifically, tumors were extracted from 4 to 6 mice randomly selected from each therapy group. […] Five fields of view for a central part of the tumor without tumor necrosis were selected, and 500 or more cells in total were counted in each group. The Ki-67 labeling index was calculated as the number of Ki-67 positive cells/the total number of cells.

RKO cells = assay: Screening of SCADS Inhibitor Kit with dabrafenib + trametinib, cell viability by MTT assay; type: cell-based
Experimental: As the SCADS Inhibitor Kit, one provided by the Molecular Profiling Committee of the Grants-in-Aid for Scientific Research “Advanced Animal Model Support (AdAMS)” in the innovation field of the Ministry of Education, Culture, Sports, Science and Technology was used.
The RKO cells were seeded on a 96-well plate with the number of cells of 2.7×10^3 cells/well, and 24 hours later, SCADS Inhibitor Kit 4 ver 2.3 was administered at 500 nM. Two plates treated in the same manner were prepared, and 50 nM of the BRAF inhibitor Dabrafenib and 5 nM of the MEK inhibitor Trametinib were administered to one of the plates. After incubation at 37° C. for 72 hours after the drug administration, cell viability was measured by an MTT assay (described below). The cell viability was evaluated for RKO cells administered with only DMSO.
The MTT (Thiazolyl blue tetrazolium bromide) assay was performed as follows.
RKO cells were seeded on a 96-well plate with the number of cells of 1.5×10^3 cells/well, CO115 cells were seeded on a 96-well plate with the number of cells of 2.5×10^3 cells/well, and HT29 cells and WiDR cells were respectively seeded on 96-well plates with the number of cells of 6×10^3 cells/well. After incubation for about 24 hours until the cell density reached 40% to 60%, the drug was administered. […]
The synergistic effect was evaluated using Combination Index. […]

## CC1=C(/C=C/C(C)=C/C=C/C(C)=C/C(=O)O)C(C)(C)CCC1 [ATRA, all-trans retinoic acid]
HT29 cell line [1]
  apoptotic cell proportion (Annexin V positive): no significant change
RKO cell line
  apoptotic cell proportion (Annexin V positive): no significant change
[2]
  cell viability with encorafenib and binimetinib as a function of ATRA concentration: the higher the concentration of ATRA is, the lower the cell viability is
[3]
  cell viability with encorafenib and binimetinib as a function of ATRA concentration: the higher the concentration of ATRA is, the lower the cell viability is
[4]
  cell viability with encorafenib and binimetinib as a function of ATRA concentration: the higher the concentration of ATRA is, the lower the cell viability is
[5]
  cell viability with encorafenib and binimetinib as a function of ATRA concentration: the higher the concentration of ATRA is, the lower the cell viability is
[6]
  cell viability with encorafenib and binimetinib as a function of ATRA concentration: the higher the concentration of ATRA is, the lower the cell viability is
HT29 cell line [7]; 28 days after the therapy
  mouse body weights depending on the presence or absence of TRE: no significant difference
HT29 cell line [7]; 28 days from the start of the therapy, ENC 5 mg/kg, BIN 1.75 mg/kg, TRE 10 mg/kg oral once a day, CET 20 mg/kg i.p. twice a week
  tumor volume: 1156 mm^3
HT29 cell line [7]; resected tumor at the end of the therapy, TRE vs vehicle, combinations vs same group without TRE
  Ki-67 labeling index: No significant difference
RKO cells; ATRA alone
  proliferation inhibition: less than 20%
RKO cells; Homo sapiens, RKO, 72 hours, kit compound (ATRA) 0.5 μM, DAB 50 nM, TRA 5 nM, relative to DMSO
  viability at 0.5 µM: 101%
